In BindingDB's records for patent US20240025883 (Hoffmann-La Roche, 2024):

biological target: Uracil nucleotide/cysteinyl leukotriene receptor (Homo sapiens, UniProt Q13304); test: GPR17 cAMP Assay Protocol
Procedure: GPR17 cAMP Assay Protocol: CHO-K1 cells stably expressing vector containing untagged human GPR17 short isoform (Roche) were cultured at 37° C./5% CO2 in DMEM (Dulbecco's Modified Eagle Medium):F-12 (1:1) supplemented with 10% foetal bovine serum and 400 μg/ml Geneticin. Changes in intracellular cyclic adenosine monophosphate (cAMP) levels were quantified using the Nano-TRF Detection Assay kit (Roche Diagnostics, Cat. No. 05214386001). This assay allows for direct cAMP quantification in a homogeneous solution, cAMP is detected based on time-resolved fluorescence energy transfer (TR-FRET) and competitive binding of ruthenylated cAMP and endogenous cAMP to an anti-cAMP monoclonal antibody labeled with AlexaFluor-700. The Ruthenium complex serves as the FRET donor and transfers energy to AlexaFluor-700. The FRET signal is inversely proportional to the cAMP concentration. CHO-GPR17S cells were detached with Accutase and resuspended in assay buffer consisting of Hank's Balanced Salt Solution (HBSS), 10 mM HEPES (4-(2-hydroxyethyl) piperazine-1-ethanesulfonic acid solution) and 0.1% bovine serum albumin (pH 7.4). The cells were seeded in black 384-well plates (Corning) at a density of 10,000 cells/20 μl assay buffer until the addition of compounds.

Sequence of Uracil nucleotide/cysteinyl leukotriene receptor (Q13304 whole entry, canonical isoform): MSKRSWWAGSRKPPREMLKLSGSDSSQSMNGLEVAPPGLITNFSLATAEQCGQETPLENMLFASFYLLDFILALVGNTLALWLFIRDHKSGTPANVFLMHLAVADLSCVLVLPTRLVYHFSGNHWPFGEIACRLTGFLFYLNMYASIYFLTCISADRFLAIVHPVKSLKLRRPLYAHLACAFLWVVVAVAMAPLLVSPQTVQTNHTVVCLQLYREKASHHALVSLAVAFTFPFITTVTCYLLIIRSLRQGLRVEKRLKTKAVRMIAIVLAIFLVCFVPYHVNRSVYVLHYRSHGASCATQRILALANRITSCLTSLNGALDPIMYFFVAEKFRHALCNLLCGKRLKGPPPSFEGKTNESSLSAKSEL

IC50 [nM] | SMILES
32 | COc1nc(NS(=O)(=O)c2c[nH]c3c(C#N)c(Cl)ccc23)nc(OC)c1OCCF [US20240025883, Example 225]
35 | COc1nc(NS(=O)(=O)c2c[nH]c3c(C#N)c(Cl)ccc23)nc(OC)c1OCC(F)F [US20240025883, Example 226]
22 | COc1nc(NS(=O)(=O)c2c[nH]c3c(C#N)c(Cl)ccc23)nc(OC)c1CC(F)F [US20240025883, Example 227]
161 | COc1nc(NS(=O)(=O)c2c[nH]c3c4c(ccc23)COC4)ncc1CC(F)F [US20240025883, Example 228]

More lines, now with the values behind:

SMILES | IC50 [nM]
COc1nc(NS(=O)(=O)c2c[nH]c3cc(Cl)ccc23)nc(OC)c1OCC(F)F [US20240025883, Example 54] | 17
COc1nc(NS(=O)(=O)c2c[nH]c3cc(Cl)ccc23)nc(OC)c1OC(F)(F)CF [US20240025883, Example 55] | 17
COc1nc(NS(=O)(=O)c2c[nH]c3cc(F)ccc23)nc(OC)c1OC(F)(F)CF [US20240025883, Example 87] | 66
COc1nc(NS(=O)(=O)c2c[nH]c3nc(C(F)F)ccc23)nc(OC)c1OCCF [US20240025883, Example 95] | 68
COc1nc(NS(=O)(=O)c2c[nH]c3nc(C(F)F)ccc23)nc(OC)c1OCC(F)F [US20240025883, Example 96] | 29
COc1nc(NS(=O)(=O)c2c[nH]c3nc(C(F)F)ccc23)nc(OC)c1OC(F)(F)CF [US20240025883, Example 97] | 50
COc1nc(NS(=O)(=O)c2c[nH]c3cc(C(F)F)ccc23)nc(OC)c1OCC(F)F [US20240025883, Example 102] | 14
COc1nc(NS(=O)(=O)c2c[nH]c3cc(SC)ccc23)ncc1CC(F)F [US20240025883, Example 193] | 96
